# Assay results from ChEMBL document CHEMBL1201862, “PubChem BioAssay data set” (2004).
# Activity calls are given as the source filed them.
# Legend:
# [1] = HEK-293T cell viability reduction – luminescence, B-cell screen hits, cytotoxicity control for BCR NF-kB inhibitor project, dose response (AID 489021); assay type: functional, cell-based;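 further: HEK-293T cells carrying an NF-kB luciferase reporter; cells exposed to compound for about 14 hours before viability readout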
# HeLa = test: viability loss in HeLa cells – cell-based, 24 h, cherry-picked samples, cytotoxicity control, dose response (AID 504726); assay type: functional; settings: Homo sapiens;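 further: potency for cytotoxicity as loss of luminescence signal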
# [2] = blockers of bursicon-stimulated LGR2 cAMP reporter – cell-based, HEK293, CRE-luciferase reporter, cherry pick, set 2, dose response (AID 743343); assay type: functional;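 further: transfected cells were stimulated with diluted bursicon conditioned medium after compound addition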
# [3] = blockade of melanocortin 4 receptor signaling – cell-based, plate reader, cherry pick, counter-screen for LGR2 antagonist project, dose response (AID 743444); assay type: functional;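 further: transfected HEK 293 cells stimulated with alpha-MSH peptide; potency of inhibitors of the alpha-MSH evoked signal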
# HT-1080 = test: HT1080 cell viability loss – fluorescence readout (AID 620); assay type: functional, cell-based; settings: Homo sapiens
# [4] = alpha-synuclein stem-loop luciferase translation blockers – H4 neuroglioma cells, luminescence, confirmation (AID 1988); assay type: functional, cell-based
# [5] = target: Luciferin 4-monooxygenase (Photinus pyralis, UniProt P08659); test: Counter Screen for Luciferase-based Assay Positives. [Related pubchem assays: 620, 618, 411 ]
# Sequence of Luciferin 4-monooxygenase (P08659 whole entry): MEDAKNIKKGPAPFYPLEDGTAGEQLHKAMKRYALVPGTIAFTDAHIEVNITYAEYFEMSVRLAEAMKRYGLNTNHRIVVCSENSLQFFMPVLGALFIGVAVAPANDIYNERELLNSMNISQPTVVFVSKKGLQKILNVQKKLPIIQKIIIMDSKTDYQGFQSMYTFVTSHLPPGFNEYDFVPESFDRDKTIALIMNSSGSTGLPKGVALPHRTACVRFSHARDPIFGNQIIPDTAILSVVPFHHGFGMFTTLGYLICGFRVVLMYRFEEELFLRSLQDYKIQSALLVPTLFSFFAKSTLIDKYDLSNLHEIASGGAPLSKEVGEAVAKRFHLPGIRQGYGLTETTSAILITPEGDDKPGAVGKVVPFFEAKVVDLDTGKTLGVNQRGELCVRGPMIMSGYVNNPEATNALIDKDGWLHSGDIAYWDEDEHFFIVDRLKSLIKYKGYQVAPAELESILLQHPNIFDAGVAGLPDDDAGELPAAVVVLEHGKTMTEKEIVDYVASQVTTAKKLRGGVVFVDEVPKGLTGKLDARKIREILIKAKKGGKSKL
# [6] = Luminescence Cell-Based Dose Response HTS to Identify Inhibitors of 5'UTR Stem-Loop Driven Prion Protein mRNA Translation in H4 Neuroglioblastoma Cells. [Related pubchem assays: 1827 (Project Summary), 1813 (Primary HTS)]; assay type: functional
# Estrogen receptor = target: T1, Estrogen receptor (Homo sapiens, UniProt P03372); test: blockers of SRC-3 recruitment to ERα – biochemical, ELISA, streptavidin-HRP readout, orthogonal assay, confirmation (AID 1079)
# T1 sequence (P03372 whole entry): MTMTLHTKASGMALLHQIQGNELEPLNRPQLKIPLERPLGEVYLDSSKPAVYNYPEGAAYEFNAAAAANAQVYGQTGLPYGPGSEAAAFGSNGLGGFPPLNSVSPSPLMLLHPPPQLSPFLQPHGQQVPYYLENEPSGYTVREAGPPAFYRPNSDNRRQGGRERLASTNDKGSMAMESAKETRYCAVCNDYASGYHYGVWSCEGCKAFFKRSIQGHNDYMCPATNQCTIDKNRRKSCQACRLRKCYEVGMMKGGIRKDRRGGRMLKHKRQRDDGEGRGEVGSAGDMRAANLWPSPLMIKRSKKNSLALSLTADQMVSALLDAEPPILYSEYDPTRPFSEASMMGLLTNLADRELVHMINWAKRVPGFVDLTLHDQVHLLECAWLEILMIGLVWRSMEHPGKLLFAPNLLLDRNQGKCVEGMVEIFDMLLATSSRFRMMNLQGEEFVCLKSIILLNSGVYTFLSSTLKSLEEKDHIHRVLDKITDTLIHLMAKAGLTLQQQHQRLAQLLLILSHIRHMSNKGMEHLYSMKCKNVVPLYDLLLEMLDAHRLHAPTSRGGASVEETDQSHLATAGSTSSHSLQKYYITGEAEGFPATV
# Caspase-6 = Caspase-6 (Homo sapiens, UniProt P55212); test: inhibition of CASP6 peptide cleavage – biochemical, VEID-R110 fluorescence, cherry-pick, dose response (AID 720632)
# Sequence of Caspase-6 (P55212 24-179 limits assumed): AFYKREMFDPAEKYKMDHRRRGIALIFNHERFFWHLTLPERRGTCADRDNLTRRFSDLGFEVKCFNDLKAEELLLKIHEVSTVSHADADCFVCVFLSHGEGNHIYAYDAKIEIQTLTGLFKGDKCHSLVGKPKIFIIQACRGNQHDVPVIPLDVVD
# Sequence of Caspase-6 (P55212 194-293 limits assumed): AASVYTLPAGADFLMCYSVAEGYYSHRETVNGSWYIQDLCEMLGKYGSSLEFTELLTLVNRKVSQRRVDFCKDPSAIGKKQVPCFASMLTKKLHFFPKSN
# [7] = antiviral protection against BTV-induced cell death – arbovirus, BSR cells, confirmation (AID 1250); assay type: functional;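 further: protection from viral cytopathic effect measured as cell viability by ATP luminescence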
# [8] = microbe, parasite or virus in culture; assay type: functional; settings: Mycobacterium tuberculosis
# [9] = target: Neuropeptide Y receptor type 2 (Homo sapiens, UniProt P49146); test: IC50 for human NPY-Y2 blockade – cell-based, counter-screen for NPY-Y1 antagonist project, dose response (AID 1278); assay type: functional
# Sequence of Neuropeptide Y receptor type 2 (P49146 whole entry): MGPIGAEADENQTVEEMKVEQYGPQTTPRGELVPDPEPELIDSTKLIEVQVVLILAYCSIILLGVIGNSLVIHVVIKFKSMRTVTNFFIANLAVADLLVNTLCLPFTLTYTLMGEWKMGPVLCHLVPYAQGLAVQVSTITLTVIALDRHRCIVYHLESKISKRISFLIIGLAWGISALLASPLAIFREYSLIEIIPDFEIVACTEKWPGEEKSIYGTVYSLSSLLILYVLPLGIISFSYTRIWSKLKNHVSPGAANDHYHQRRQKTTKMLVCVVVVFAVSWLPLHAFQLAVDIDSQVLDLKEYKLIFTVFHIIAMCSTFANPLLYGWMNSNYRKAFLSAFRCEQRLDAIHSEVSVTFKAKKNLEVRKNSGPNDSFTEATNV
# [10] = THP-1 cell cytotoxicity, dose response, cytotoxicity control for non-replicating M. tuberculosis project (AID 489025); assay type: functional
# cells = assay type: functional
# [11] = target: Neuropeptide Y receptor type 1 (Homo sapiens, UniProt P25929); test: IC50 of human NPY-Y1 blockers – cell-based, dose response (AID 1277); assay type: functional
# Vero = test: cells; assay type: functional; settings: Chlorocebus sabaeus
# [12] = A Cell Based Secondary Assay To Explore Cytotoxicity of Compounds that Sensitize Mycobacterium Tuberculosis to Beta-Lactam Antibiotics.; assay type: functional
# [13] = A cytotoxicity screen of small molecule inhibitors of the PhoP region in Salmonella typhi identified in the primary screen. [Related pubchem assays: 1850, 1864, 1985 ]; assay type: functional
# [14] = target: Acyl-homoserine lactone acylase PvdQ (Pseudomonas aeruginosa (strain LESB58), UniProt Q9I194); test: PvdQ acylase enzyme activity blockers – biochemical, fluorescence, plate reader and imaging, cherry-picks, dose response (AID 493231)
# Sequence of Acyl-homoserine lactone acylase PvdQ (Q9I194 24-193 limits assumed): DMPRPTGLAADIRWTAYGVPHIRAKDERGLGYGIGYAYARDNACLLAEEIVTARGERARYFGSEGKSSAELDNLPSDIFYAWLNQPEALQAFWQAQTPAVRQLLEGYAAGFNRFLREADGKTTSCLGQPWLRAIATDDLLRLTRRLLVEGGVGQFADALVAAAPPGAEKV
# Sequence of Acyl-homoserine lactone acylase PvdQ (Q9I194 217-762 limits assumed): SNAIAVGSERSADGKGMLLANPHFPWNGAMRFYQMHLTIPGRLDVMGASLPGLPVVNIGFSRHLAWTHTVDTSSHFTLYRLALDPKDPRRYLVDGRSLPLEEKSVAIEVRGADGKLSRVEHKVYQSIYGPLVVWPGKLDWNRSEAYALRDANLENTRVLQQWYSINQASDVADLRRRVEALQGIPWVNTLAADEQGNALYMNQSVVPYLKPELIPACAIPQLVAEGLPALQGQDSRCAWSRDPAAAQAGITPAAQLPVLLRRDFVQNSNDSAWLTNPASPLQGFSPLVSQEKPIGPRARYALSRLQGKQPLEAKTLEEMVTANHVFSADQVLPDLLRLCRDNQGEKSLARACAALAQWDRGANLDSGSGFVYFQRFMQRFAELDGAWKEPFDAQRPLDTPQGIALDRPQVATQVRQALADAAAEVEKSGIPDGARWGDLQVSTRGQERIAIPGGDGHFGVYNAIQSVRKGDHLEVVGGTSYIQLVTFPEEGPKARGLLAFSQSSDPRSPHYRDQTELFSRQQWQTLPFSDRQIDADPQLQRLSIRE
# [15] = target: Eukaryotic translation initiation factor 4H (Homo sapiens, UniProt Q15056); test: eIF4H binding inhibition – biochemical, uHTS, fluorescence polarization, translation initiation inhibitor project, primary screen (AID 2012)
# [16] = target: Polyadenylate-binding protein 1 (Homo sapiens, UniProt P11940); test: blockers of PABP interaction with poly(A) – biochemical, fluorescence polarization, […] (AID 2014)
# Sequence of Polyadenylate-binding protein 1 (P11940 whole entry): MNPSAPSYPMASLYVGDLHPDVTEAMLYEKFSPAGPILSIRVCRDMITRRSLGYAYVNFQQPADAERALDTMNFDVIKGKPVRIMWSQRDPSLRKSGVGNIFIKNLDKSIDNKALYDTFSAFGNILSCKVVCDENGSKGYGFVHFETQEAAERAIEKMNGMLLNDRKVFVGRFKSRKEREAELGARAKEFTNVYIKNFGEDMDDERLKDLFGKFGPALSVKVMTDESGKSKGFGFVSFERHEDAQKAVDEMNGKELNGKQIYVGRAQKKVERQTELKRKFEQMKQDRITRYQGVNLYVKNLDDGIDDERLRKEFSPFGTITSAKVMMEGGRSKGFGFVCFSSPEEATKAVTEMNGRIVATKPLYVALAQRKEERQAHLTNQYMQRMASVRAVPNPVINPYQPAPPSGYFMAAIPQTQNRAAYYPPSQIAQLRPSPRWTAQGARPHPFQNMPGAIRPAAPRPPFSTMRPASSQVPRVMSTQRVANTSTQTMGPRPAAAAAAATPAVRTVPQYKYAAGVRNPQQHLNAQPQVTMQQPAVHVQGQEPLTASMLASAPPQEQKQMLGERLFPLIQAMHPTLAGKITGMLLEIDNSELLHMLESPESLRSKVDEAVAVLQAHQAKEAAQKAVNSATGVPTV
# NS3 = NS3 (Hepatitis C virus, UniProt A3EZJ3); test: PubChem AID 2173; parameters: species or system Hepacivirus hominis
# Sequence of NS3 (A3EZJ3 whole entry): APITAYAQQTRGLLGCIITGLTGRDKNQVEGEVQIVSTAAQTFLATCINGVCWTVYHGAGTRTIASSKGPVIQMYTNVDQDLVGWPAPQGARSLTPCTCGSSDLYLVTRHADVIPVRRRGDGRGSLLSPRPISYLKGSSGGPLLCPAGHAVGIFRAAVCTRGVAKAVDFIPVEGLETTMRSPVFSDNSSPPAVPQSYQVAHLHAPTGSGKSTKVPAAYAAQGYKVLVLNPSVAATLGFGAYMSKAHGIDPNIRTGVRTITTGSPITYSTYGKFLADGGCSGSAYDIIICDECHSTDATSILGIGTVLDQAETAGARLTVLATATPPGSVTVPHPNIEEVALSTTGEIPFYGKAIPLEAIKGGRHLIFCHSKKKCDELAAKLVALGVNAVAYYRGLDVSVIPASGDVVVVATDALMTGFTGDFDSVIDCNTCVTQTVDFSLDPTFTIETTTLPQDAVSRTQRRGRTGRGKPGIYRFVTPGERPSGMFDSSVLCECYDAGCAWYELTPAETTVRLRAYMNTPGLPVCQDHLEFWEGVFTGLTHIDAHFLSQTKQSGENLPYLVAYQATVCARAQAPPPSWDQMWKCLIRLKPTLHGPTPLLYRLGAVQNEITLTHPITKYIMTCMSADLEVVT
# [17] = target: Serine/threonine-protein phosphatase PP1-alpha catalytic subunit (Homo sapiens, UniProt P62136); test: inhibition of protein phosphatase 1 activity – biochemical, fluorescence, dose response (AID 2403);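 further: phosphatase turnover of OMFP into fluorescent 3-O-methylfluorescein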
# [18] = target: Serine/threonine-protein phosphatase (Homo sapiens, UniProt Q9BPW0); test: Counterscreen for inhibitors of PP1: fluorescence-based biochemical high throughput dose response assay to identify inhibitors of Protein Phosphatase 5 (PP5). [Related pubchem assays: 2034 (Summary (PP5 inhibitors)), 1987 (PP5 inhibitors in singlate), 2235 (PP1 inhibitors in singlate)]
# Sequence of Serine/threonine-protein phosphatase (Q9BPW0 whole entry): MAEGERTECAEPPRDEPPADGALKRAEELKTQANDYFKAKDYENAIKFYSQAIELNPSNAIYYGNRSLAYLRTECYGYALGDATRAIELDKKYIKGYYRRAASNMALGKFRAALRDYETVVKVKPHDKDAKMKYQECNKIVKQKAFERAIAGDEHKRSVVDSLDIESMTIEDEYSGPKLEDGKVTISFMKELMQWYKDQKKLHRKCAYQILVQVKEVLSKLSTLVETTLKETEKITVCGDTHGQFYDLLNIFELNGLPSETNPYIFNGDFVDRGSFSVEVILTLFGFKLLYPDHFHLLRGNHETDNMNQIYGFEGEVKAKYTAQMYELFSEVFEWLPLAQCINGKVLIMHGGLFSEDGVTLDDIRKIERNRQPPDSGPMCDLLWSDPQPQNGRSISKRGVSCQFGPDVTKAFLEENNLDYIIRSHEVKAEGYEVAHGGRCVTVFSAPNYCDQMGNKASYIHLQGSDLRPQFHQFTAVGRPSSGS
# [19] = target: T2, Zinc finger protein mex-5 (Caenorhabditis elegans, UniProt Q9XUB2); test: potency of MEX-5 RNA-binding blockers – biochemical, C. elegans, fluorescence polarization, dose response (AID 1960)
# T2 sequence (Q9XUB2 whole entry): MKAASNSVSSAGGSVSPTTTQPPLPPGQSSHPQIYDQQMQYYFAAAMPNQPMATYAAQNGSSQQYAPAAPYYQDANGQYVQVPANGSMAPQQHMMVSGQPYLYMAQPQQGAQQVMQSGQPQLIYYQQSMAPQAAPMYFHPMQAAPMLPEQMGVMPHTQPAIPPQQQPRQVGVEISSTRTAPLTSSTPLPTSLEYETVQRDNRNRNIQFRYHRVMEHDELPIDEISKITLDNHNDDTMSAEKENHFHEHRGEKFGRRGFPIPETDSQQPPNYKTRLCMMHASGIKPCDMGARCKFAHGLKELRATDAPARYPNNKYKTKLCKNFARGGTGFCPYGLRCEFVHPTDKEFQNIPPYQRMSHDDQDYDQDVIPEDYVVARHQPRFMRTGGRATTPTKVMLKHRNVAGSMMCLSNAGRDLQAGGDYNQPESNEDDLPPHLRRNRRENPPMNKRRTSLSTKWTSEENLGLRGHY
# Salmon testes DNA = test: acridine orange-DNA binding displacement – biochemical, fluorescence polarization, cherry-picked samples, set 2, artefact control for KSHV LANA DNA-binding inhibitor project, dose response (AID 504727); parameters: species or system Salmonidae
# [20] = target: T3, RNA-binding protein pos-1 (Caenorhabditis elegans, UniProt G5EF15); test: disruptors of C. elegans POS-1 RNA interaction – biochemical, fluorescence polarization, dose response (AID 1964);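 further: purified POS-1 fused to maltose binding protein made in E. coli; potency of compounds blocking POS-1 binding to fluorescent RNA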
# T3 sequence (G5EF15 whole entry): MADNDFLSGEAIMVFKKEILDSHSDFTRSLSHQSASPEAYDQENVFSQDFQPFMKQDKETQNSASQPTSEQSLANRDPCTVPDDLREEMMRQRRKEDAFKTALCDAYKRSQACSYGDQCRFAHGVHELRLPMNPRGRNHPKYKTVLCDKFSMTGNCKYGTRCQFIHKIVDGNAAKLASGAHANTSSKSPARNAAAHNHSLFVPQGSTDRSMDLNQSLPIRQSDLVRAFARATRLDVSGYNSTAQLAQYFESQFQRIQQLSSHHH
# ORF 73 = target: T4, ORF 73 (Human herpesvirus 8, UniProt O40947); test: KSHV LANA DNA-binding disruption – biochemical, fluorescence polarization, cherry-picked samples, dose response (AID 504725); parameters: species or system Human gammaherpesvirus 8;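 further: fluorescence polarization of a labeled DNA duplex reporting LANA DNA binding; potency is for inhibitors that block LANA binding to the DNA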
# T4 sequence (O40947 whole entry): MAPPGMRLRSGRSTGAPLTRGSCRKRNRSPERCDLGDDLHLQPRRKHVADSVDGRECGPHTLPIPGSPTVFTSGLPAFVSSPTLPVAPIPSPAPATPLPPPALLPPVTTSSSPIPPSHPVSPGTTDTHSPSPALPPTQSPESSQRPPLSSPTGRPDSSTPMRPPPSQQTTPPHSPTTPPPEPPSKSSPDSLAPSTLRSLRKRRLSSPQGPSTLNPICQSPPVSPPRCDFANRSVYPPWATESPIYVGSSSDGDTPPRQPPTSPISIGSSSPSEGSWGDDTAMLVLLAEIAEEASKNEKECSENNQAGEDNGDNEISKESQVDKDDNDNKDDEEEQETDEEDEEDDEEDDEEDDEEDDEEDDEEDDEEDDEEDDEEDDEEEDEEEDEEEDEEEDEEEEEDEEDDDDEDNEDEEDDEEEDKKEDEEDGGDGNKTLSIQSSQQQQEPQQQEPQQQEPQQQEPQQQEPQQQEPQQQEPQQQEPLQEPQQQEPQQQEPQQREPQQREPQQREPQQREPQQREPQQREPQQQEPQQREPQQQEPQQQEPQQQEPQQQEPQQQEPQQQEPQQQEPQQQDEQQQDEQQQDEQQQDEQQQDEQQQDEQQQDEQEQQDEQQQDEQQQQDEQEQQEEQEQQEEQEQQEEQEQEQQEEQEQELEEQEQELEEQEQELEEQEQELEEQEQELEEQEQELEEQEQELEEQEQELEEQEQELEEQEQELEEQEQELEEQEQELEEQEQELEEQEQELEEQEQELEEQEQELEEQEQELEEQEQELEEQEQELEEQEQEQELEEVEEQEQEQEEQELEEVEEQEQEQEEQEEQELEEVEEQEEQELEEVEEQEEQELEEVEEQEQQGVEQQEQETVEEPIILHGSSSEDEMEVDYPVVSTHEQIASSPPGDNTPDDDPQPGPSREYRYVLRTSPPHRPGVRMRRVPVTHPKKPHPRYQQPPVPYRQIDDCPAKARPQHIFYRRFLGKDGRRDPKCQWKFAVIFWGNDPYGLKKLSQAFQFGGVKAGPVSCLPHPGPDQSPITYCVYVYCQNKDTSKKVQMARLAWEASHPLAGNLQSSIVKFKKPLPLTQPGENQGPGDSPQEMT
# [21] = target: Signal transducer and activator of transcription 3 (Homo sapiens, UniProt P40763); test: STAT3 activation with BCL3 mRNA and toxicity – cell-based, […], BCL3 qPCR, cytotoxicity, late-stage follow-up, panel member STAT3 Activation (AID 2049)
# Sequence of Signal transducer and activator of transcription 3 (P40763 whole entry): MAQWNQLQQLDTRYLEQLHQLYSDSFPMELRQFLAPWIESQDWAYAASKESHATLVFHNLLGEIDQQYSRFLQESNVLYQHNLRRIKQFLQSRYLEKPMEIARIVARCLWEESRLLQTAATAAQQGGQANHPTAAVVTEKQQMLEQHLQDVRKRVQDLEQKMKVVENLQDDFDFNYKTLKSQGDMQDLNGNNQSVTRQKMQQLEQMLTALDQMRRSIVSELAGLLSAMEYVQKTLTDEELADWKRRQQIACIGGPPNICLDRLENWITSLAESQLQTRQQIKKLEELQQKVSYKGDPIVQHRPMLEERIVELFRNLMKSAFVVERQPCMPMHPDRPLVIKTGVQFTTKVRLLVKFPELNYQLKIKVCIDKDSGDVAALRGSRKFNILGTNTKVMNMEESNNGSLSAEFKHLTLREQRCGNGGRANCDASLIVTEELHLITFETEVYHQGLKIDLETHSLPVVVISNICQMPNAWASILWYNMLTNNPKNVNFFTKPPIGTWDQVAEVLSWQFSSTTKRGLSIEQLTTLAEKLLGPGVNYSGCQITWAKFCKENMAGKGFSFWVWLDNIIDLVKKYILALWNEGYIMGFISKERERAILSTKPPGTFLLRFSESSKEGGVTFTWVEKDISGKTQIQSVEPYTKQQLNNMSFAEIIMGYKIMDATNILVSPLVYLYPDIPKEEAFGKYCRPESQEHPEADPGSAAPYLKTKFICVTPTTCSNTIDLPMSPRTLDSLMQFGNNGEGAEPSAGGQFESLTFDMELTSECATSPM
# X-box-binding protein 1 = X-box-binding protein 1 (Homo sapiens, UniProt P17861); assay type: functional, Cricetulus griseus;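 further: confirmatory dose-response counter-screen serving a CHOP assay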
# Sequence of X-box-binding protein 1 (P17861 whole entry): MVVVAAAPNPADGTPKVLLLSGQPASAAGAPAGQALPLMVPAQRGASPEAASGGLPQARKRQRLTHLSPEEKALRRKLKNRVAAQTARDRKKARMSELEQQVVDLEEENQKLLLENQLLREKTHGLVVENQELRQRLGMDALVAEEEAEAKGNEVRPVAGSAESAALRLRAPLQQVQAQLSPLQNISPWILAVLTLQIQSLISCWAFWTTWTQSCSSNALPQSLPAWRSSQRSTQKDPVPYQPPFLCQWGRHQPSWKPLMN
smiles,measurement,setting,value
CCCCCOc1ccc(NC(=O)C(=O)NCCCn2ccnc2)cc1,IC50,[1],> 80 µM (inactive)
CCCN(CCC)C(=O)C1c2ccccc2Oc2ccccc21,AC50,HeLa,81.4 µM (active)
O=C(Nc1nc2c(s1)CCCC2)C1COc2ccccc2O1 (stereo unspecified),AC50,[2],6.29 µM (active)
same,AC50,[3],12.1 µM (active)
same,EC50,HT-1080,> 50 µM (not active)
same,EC50,[4],5.78 µM (active)
same,EC50,[5],< 0.2 µM (active)
same,EC50,[6],6.51 µM (active)
O=C(CCCn1c(=S)[nH]c2ccccc2c1=O)N1CCN(c2cccc(O)c2)CC1,IC50,Estrogen receptor,1.62 µM (not active)
O=C(O)C1CCCCC1C(=O)Nc1nc(-c2ccc(Cl)s2)cs1 (stereo unspecified),AC50,Caspase-6,32.9 µM (active)
same,IC50,[7],38.5 µM (active)
Cc1ccc(-n2cc(CNCCn3nc(C)cc3C)c(-c3ccc(F)cc3)n2)cc1,CC50,[8],> 40 µM (active)
same,IC50,[9],> 35 µM (not active)
same,CC50,[10],23.5 µM (active)
same,IC50,cells,4.38 µM (active)
same,IC50,[11],10.6 µM (not active)
Cn1c(=O)c2ccccc2n2c(CCl)nnc12,CC50,Vero,18 µM (active)
same,CC50,[12],30.5 µM (active)
O=C(Nc1ccc(Cl)cc1)c1cccs1,EC50,[13],> 50 µM (active)
N#CC(c1ccc(Cl)nn1)c1ccc(Cl)cc1Cl (stereo unspecified),AC50,[14],0.646 µM (active)
O=C(C[n+]1ccccc1)c1ccc(Cl)cc1,IC50,[15],> 100 µM (inactive)
same,IC50,[16],5.96 µM (active)
CCCOc1ccc(C2C(C(=O)c3ccc(C)o3)=C(O)C(=O)N2Cc2ccco2)cc1OCC (stereo unspecified),IC50,NS3,5.19 µM (active)
CCn1c2ccccc2c2cc(NC(=O)COC(=O)c3ccc(NC(=O)CC#N)cc3)ccc21,IC50,[17],7.27 µM (active)
same,IC50,[18],> 67 µM (not active)
CCc1cc[n+](-c2[n-]c(=O)sc2C=O)cc1,EC50,[19],11.8 µM (active)
same,AC50,Salmon testes DNA,141 µM (active)
same,EC50,[20],16.7 µM (active)
same,AC50,ORF 73,73.5 µM (active)
COc1cc(NC(=O)c2cc(C3CC3)on2)ccc1Br,EC50,[21],> 5.57 µM (inactive)
COCCn1/c(=N/C(=O)/C=C/c2cccs2)sc2cc(NC(C)=O)ccc21,Absolute IC50 (XBP1),X-box-binding protein 1,10 µM
